For one assay, the target named is AKT3 (Homo sapiens (Human), UniProt Q9Y243). Nature of the assay: AKT kinase activity assay (HTRF kinEASE TK), AKT3. Format: biochemical. The conditions noted are these: 10 nM ATP, read-out: AKT3 enzyme activity IC50. The procedure:
The substrate and ATP were respectively diluted with the 1× kinase reaction buffer to a concentration 5 times the reaction concentration.
A 5× enzyme working solution was prepared from the 1× kinase reaction buffer.
A 4× streptavidin-XL665 working solution was prepared from the assay buffer.
4× europium-labeled tyrosine kinase substrate antibody working solution The europium-labeled tyrosine kinase substrate antibody was 100-fold diluted with the assay reaction buffer to obtain a working solution.
After all the reagents were prepared according to the above method, except for the enzyme, the reagents were equilibrated to the room temperature and loaded.
b) 2 µL of previously prepared TK-biotin substrate solution (the concentration of the substrate for enzyme screening is shown in Table 1) was placed in each reaction well.
The plate was sealed with a sealing film, and the reaction solution was mixed until uniform and incubated at the room temperature for 10 min to allow the compound to fully react with and bind to the enzyme.
d) 2 µL of ATP solution was placed in each reaction well to initiate a kinase reaction (the concentration of ATP for enzyme screening and reaction time are shown in Table 1).
e) 5 min before the kinase reaction was completed, an assay solution was prepared.
f) After the kinase reaction was completed, 5 µL of diluted streptavidin-XL665 was placed in each reaction well and mixed with the reaction solution until uniform, and the diluted europium-labeled tyrosine kinase substrate antibody assay solution was immediately added.
In general terms: TR-FRET usually uses a lanthanide donor and a delayed reading to cut background.

Assay [1] concerns LnCap human prostate cancer. In words: Subcutaneous transplantation model of LnCap human prostate cancer. It is filed as in vivo, NCG mice. The conditions noted are these: for T/C / TGI / TV on the day of the end of the experiment: 18 days; for TV on the day of the end of the experiment / TV on the day of grouping and administration: mean ± SEM; for TV on the day of grouping and administration: baseline. The source says: NCG mice, male, 8-10-week-old (when tumor cells were inoculated into the mice). […] LnCap cells in exponential growth phase were harvested and resuspended in PBS to a concentration suitable for subcutaneous tumor inoculation into mice. […] A formula for calculating a tumor volume: long diameter × short diameter^2 / 2. [table] […] Solvent: the solvent was a mixed solvent of PG, PEG400, and water, PG: PEG400: water=(20-40): (20-30): (30-50) (v: v: v). Any ratio within the range can be used. [table] All experimental results are shown as mean tumor volume ± SEM (standard error of mean). Whether there is a significant difference between the treatment group and the control group in terms of tumor volume was determined by the independent samples T test. All data were analyzed by using SPSS 18.0.

The next assay concerns the target AKT1 (Homo sapiens (Human), UniProt P31749). Nature of the assay: AKT kinase activity assay (HTRF kinEASE TK), AKT1. It is filed as biochemical. The conditions noted are these: 2 µM ATP, read-out: AKT1 enzyme activity IC50.

AKT3, sequence (Q9Y243 whole entry): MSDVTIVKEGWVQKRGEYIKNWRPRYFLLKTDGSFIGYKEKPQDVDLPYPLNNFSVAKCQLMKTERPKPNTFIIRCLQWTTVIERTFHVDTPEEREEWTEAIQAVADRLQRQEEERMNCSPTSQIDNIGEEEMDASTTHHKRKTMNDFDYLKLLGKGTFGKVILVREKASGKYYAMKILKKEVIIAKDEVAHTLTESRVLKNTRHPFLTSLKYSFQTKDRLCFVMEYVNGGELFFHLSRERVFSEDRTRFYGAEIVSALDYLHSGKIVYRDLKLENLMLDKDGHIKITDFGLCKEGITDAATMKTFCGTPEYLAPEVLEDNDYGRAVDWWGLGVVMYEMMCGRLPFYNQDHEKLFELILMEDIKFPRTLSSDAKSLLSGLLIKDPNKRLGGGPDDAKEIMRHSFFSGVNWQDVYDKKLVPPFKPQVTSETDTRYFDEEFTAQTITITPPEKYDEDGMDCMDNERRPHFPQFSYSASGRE
AKT1, sequence (P31749 whole entry): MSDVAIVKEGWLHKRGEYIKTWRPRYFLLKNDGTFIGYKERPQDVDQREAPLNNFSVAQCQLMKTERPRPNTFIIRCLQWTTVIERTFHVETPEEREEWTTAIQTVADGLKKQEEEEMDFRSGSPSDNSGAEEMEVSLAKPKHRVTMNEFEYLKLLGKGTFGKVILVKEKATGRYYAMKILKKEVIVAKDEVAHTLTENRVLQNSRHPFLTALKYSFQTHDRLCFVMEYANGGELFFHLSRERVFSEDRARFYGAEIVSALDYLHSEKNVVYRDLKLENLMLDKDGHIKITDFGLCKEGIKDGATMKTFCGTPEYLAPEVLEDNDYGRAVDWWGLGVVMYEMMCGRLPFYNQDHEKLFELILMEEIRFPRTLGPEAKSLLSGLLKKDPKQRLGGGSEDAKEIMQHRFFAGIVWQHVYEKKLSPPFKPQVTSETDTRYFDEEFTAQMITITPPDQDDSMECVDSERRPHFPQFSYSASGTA

By IC50 is commonly meant the concentration needed to halve the response being measured. In the case of `C[C@@H]1CC(=O)Nc2ncnc(N3CCN(C(=O)[C@H](CNC4CC4)c4ccc(Cl)cc4)[C@H]4C[C@H]43)c21` (single isomer, unassigned) [Isomer 1 of Example 1], the 50% inhibitory concentration (IC50) on AKT3 came out at 13 nM.
What is called T/C is the result in the treated group divided by that in the control group, in per cent. As to `CC(C)NC[C@@H](C(=O)N1CCN(c2ncnc3c2[C@H](C)CC(=O)N3)[C@H]2C[C@H]21)c1ccc(Cl)cc1` [Isomer 2 of Example 1, (R)-4-((1S,6R)-5-((S)-2-(4-chlorophenyl)-3-(isopropylamino)propionyl)-2,5-diazabicyclo[4.1.0]heptan-2-yl)-5-methyl-5,8-dihydropyrido[2,3-d]pyrimidin-7(6H)-one], in assay [1] (12.5 mg/kg QD po), the T/C stood at 41.57%; the TGI worked out at 58.43%; the “TV on the day of the end of the experiment” value (from here on “TV … of the experiment”) was 401.07±80.17 mm^3; the “TV on the day of grouping and administration” value worked out at 177.76±6.67 mm^3. Further, in assay [1] (25 mg/kg QD po), the T/C was 15.90%; the TGI worked out at 84.10%; the “TV … of the experiment” value worked out at 153.42±23.11 mm^3; the “TV on the day of grouping and administration” value stood at 177.80±6.71 mm^3. Moreover, in assay [1] (50 mg/kg QD po), the T/C was 4.52%; the TGI turned out to be 95.48%; the “TV … of the experiment” value turned out to be 43.64±16.62 mm^3; the “TV on the day of grouping and administration” value was 177.78±6.64 mm^3.
On to `C[C@@H]1CC(=O)Nc2ncnc(N3CCN(C(=O)[C@H](CNC4CC4)c4ccc(Cl)cc4)[C@@H]4C[C@@H]43)c21` [Isomer 2 of Example 2, (R)-4-((1S,6R)-5-((S)-2-(4-chlorophenyl)-3(cyclopropylamino)propionyl)-2,5-diazabicyclo[4.1.0]heptan-2-yl)-5-methyl-5,8-dihydropyrido[2,3-d]pyrimidin-7(6H)-one], for which, in assay [1] (50 mg/kg QD po), the T/C worked out at 19.44%, the TGI is listed as 80.56% and the “TV … of the experiment” value stood at 187.49±22.88 mm^3.
Regarding `CC(C)NC[C@@H](C(=O)N1CCN(c2ncnc3c2[C@H](C)OC(=O)N3)[C@H]2C[C@H]21)c1ccc(Cl)cc1` (single isomer, unassigned) [Isomer 2 of Example 3], the IC50 was found to be 89 nM at AKT3 and 613 nM on AKT1.
In the case of `CC(C)NC[C@@H](C(=O)N1CCN(c2ncnc3c2[C@H](C)OC(=O)N3)[C@H]2C[C@H]21)c1ccc(Cl)cc1` (single isomer, unassigned; isomer 4) [Isomer 4 of Example 3], in assay [1] (50 mg/kg QD po), the T/C is reported as 10.29%; the TGI is recorded as 89.71%; the “TV … of the experiment” value stood at 99.30±40.55 mm^3; the “TV on the day of grouping and administration” value came to 177.90±10.06 mm^3. Also, the “tumor inhibiting effect in the in vivo experiment” value in assay [1] (result in words) is recorded as “obvious tumor inhibiting effect”. Besides, the 50% inhibitory concentration (IC50) on AKT3 stood at 0.12 nM. Also, the IC50 on AKT1 amounted to 0.6 nM.

These data come from patent US20230321108A1, “UNIT DOSAGE COMPOSITION OF AKT INHIBITOR” (NANJING CHIA TAI TIANQING PHARMACEUTICAL CO., LTD., priority 2020, published 2023).
